Data taken from publication PMC9297976 (Journal of Applied Toxicology, 2021).

Key:
[1] = molecular target: T1, medaka Esr1 (mEsr1) (Oryzias latipes, UniProt P50241); test: cell-based; set-up: species or system Japanese medaka (Oryzias latipes)
T1 sequence (P50241 1-620): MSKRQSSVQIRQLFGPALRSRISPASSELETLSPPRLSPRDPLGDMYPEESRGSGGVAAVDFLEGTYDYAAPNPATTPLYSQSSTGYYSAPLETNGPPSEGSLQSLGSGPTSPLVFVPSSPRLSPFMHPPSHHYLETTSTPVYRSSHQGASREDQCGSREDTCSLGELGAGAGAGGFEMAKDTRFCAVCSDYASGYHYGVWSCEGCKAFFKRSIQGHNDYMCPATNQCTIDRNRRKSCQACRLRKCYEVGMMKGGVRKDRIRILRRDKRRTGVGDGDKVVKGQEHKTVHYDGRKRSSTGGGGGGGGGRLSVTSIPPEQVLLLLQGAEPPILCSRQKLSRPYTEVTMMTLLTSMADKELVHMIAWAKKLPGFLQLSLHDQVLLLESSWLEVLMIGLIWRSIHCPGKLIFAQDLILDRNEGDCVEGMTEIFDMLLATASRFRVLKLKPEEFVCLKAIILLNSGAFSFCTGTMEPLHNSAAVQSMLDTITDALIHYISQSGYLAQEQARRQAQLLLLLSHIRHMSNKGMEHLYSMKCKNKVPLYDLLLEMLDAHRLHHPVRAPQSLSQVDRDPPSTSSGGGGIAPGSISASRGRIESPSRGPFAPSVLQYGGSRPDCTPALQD

[2] = test system: Japanese medaka (Oryzias latipes); test: Fish Short‐Term Reproduction Assay; assay type: in vivo; details: for GSI Female / GSI Male / HSI Female / HSI Male / Length Female / Length Male / Weight Female / Weight Male: completion of exposure
[3] = molecular target: T1, medaka Esr1 (mEsr1); test: Medaka Esr1 reporter gene assay, antagonist assay; assay type: cell-based, Japanese medaka (Oryzias latipes); details: E2 spiked at 1.0 nM (B); MAC = 1.0 × 10^−5 M
[4] = molecular target: T2, medaka ARβ (mArβ) (Oryzias latipes, UniProt D1MV73); test: Medaka ARβ reporter gene assay, antagonist assay; assay type: cell-based, Japanese medaka (Oryzias latipes)
T2 sequence (D1MV73 1-744): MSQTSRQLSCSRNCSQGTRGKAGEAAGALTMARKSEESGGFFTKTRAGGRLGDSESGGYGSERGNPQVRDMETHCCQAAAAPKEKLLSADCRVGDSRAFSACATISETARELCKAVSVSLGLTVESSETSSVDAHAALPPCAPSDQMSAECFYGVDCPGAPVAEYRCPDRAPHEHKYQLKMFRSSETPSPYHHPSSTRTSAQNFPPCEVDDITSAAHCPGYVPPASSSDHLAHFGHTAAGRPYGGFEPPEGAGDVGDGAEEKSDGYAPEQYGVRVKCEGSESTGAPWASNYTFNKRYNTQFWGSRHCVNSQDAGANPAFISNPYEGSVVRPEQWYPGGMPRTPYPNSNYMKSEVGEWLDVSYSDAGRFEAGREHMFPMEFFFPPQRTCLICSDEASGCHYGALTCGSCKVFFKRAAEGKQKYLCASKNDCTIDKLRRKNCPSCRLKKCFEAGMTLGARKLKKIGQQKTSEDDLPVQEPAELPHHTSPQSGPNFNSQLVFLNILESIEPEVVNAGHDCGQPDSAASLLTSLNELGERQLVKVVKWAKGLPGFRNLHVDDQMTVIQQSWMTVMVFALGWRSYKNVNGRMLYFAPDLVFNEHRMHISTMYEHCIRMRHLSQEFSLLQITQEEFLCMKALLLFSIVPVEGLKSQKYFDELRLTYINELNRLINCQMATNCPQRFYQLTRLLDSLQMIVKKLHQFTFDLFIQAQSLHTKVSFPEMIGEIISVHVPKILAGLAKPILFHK

[5] = molecular target: T2, medaka ARβ (mArβ); test: Medaka ARβ reporter gene assay, agonist assay; assay type: cell-based, Japanese medaka (Oryzias latipes)
[6] = 4.67 mg/L measured, 21 d, sig. ↑ vs control
[7] = measured concentration 0.155 mg/L
[8] = measured concentration 0.826 mg/L
[9] = measured concentration 4.67 mg/L

CC(C)(c1ccc(O)cc1)c1ccc(O)cc1 [BPA, Bisphenol A]
EC50 [1]: 86 nM
In vitro positive: Esr ([1]; mode of action in which EC50 or PC10 was obtained in RGA): Esr
Fertility rate ([2]; 0.155 mg/L measured, 21 d): 96 ± 2.1%
Hepatic VTG, female ([2]; 0.155 mg/L measured, 21 d): 435 ± 65 ng/mg‐liver
Hepatic VTG, male ([2]; 0.155 mg/L measured, 21 d): 0.5 ± 0.0 ng/mg‐liver
Mortality ([2]; 0.155 mg/L measured, 21 d): 17%
Mortality, number of dead fish ([2]; 0.155 mg/L measured, 21 d): 4
Number of total eggs (per female per day) ([2]; 0.155 mg/L measured, 21 d): 14 ± 1.8
SSC female (joint plates with papillary processes) ([2]; 0.155 mg/L measured, 21 d): 0 ± 0
SSC male (joint plates with papillary processes) ([2]; 0.155 mg/L measured, 21 d): 74 ± 3.6
Fertility rate ([2]; 0.826 mg/L measured, 21 d): 94 ± 1.9%
Hepatic VTG, female ([2]; 0.826 mg/L measured, 21 d): 768 ± 297 ng/mg‐liver
Hepatic VTG, male ([2]; 0.826 mg/L measured, 21 d): 0.5 ± 0.0 ng/mg‐liver
Mortality ([2]; 0.826 mg/L measured, 21 d): 8.3%
Mortality, number of dead fish ([2]; 0.826 mg/L measured, 21 d): 2
Number of total eggs (per female per day) ([2]; 0.826 mg/L measured, 21 d): 14 ± 1.6
SSC female (joint plates with papillary processes) ([2]; 0.826 mg/L measured, 21 d): 0 ± 0
SSC male (joint plates with papillary processes) ([2]; 0.826 mg/L measured, 21 d): 71 ± 4.2
Hepatic VTG, female ([2]; 4.67 mg/L measured, 21 d): 3,456 ng/mg‐liver
SSC female (joint plates with papillary processes) ([2]; 4.67 mg/L measured, 21 d): 0 ± 0
SSC male (joint plates with papillary processes) ([2]; 4.67 mg/L measured, 21 d): 76 ± 5.7
Hepatic VTG, male [2, 6]: 2,804 ± 811 ng/mg‐liver
Mortality [2, 6]: 71%
Mortality, number of dead fish [2, 6]: 17
Fertility rate ([2]; 4.67 mg/L measured, 21 d, sig. ↓ vs control): 59 ± 25%
Fecundity, number of total eggs (in words) ([2]; 21 d): statistically significant decrease
LOEC, elevated hepatic VTG in males ([2]; 21 d): 4.67 mg/L
LOECREPRO ([2]; LOEC on reproduction (fecundity and/or fertility)): 4,670 μg/L
minimal effective concentration ([2]; Oryzias latipes, 504 h, read-out: LOECmVTG): 4.67 µg/mL
Fertility rate (in words) ([2]; at concentrations that did not affect number of total eggs): significant decrease
LOECTOX ([2]; lowest observed effect concentration on mortality): 4,670 μg/L
GSI Female [2, 7]: 6.8 ± 0.5%
GSI Male [2, 7]: 0.91 ± 0.13%
HSI Female [2, 7]: 3.4 ± 0.46%
HSI Male [2, 7]: 2.1 ± 0.40%
Length Female [2, 7]: 31.7 ± 0.9 mm
Length Male [2, 7]: 33.2 ± 0.9 mm
Weight Female [2, 7]: 313 ± 23 mg
Weight Male [2, 7]: 290 ± 23 mg
GSI Female [2, 8]: 6.0 ± 1.0%
GSI Male [2, 8]: 0.80 ± 0.23%
HSI Female [2, 8]: 3.3 ± 0.75%
HSI Male [2, 8]: 2.3 ± 0.45%
Length Female [2, 8]: 32.0 ± 0.9 mm
Length Male [2, 8]: 32.5 ± 0.9 mm
Weight Female [2, 8]: 342 ± 20 mg
Weight Male [2, 8]: 310 ± 10 mg
GSI Female [2, 9]: 2.3%
GSI Male [2, 9]: 0.77 ± 0.23%
HSI Female [2, 9]: 4.8%
HSI Male [2, 9]: 3.4 ± 1.15%
Length Female [2, 9]: 30.6 mm
Length Male [2, 9]: 33.6 ± 1.9 mm
Weight Female [2, 9]: 281 mg
Weight Male [2, 9]: 370 ± 72 mg
Antagonistic activity [3]: NE (MAC = 1.0 × 10^−5 M)^(B)
IC50 [4]: 7000 nM
In vitro positive: aAr ([4]; mode of action in which IC50 or IC30 was obtained in RGA): aAr
Antagonistic activity on mArβ (in words) ([4]; transcriptional activity on mArβ by 11KT): inhibitory potency
Agonistic activity ([5]; MAC = 1.0 × 10^−5 M): NE (MAC = 1.0 × 10^−5 M)

C[C@]12CC(=O)[C@H]3[C@@H](CCC4=CC(=O)CC[C@@]43C)[C@@H]1CC[C@@H]2O [Chemical 11KT, 11‐ketotestosterone, reference compound]
EC50 ([5]; read-out: Agonistic activity EC50, geometric mean, positive control, n = 5): 5.8 nM
